≈ marks a conversion by molar mass, not a printed value.
Columns and labels:
[1] = system: Proteus vulgaris; assay: Antibacterial activity against Proteus vulgaris by well diffusion method; assay type: functional
[2] = system: Proteus mirabilis; assay: Antibacterial activity against Proteus mirabilis by well diffusion method; assay type: functional
[3] = system: Macrophomina phaseolina; assay: Antifungal activity against Macrophomina phaseolina by poison food technique; assay type: functional
[4] = system: Fusarium oxysporum; assay: Antifungal activity against Fusarium oxysporum by poison food technique; assay type: functional
[5] = system: Staphylococcus aureus; assay: Antibacterial activity against Staphylococcus aureus by well diffusion method; assay type: functional
[6] = system: Salmonella typhi; assay: Antibacterial activity against Salmonella typhi by well diffusion method; assay type: functional, Salmonella enterica subsp. enterica serovar Typhi; details: Salmonella enterica

SMILES	MIC [1] [µg/mL]	MIC [2] [µg/mL]	MIC [3] [µg/mL]	MIC [4] [µg/mL]	MIC [5] [µg/mL]	MIC [6] [µg/mL]
COc1ccc([C@H]2C3CCCN3[C@@]3(C(=O)Nc4ccccc43)[C@]23CCC2c4ccccc4NC2C3=O)cc1 (some centres not stated)	15 (≈ 29.7 µM)	25 (≈ 49.4 µM)	25 (≈ 49.4 µM)	75 (≈ 148 µM)	40 (≈ 79.1 µM)	45 (≈ 89 µM)
O=C1C2Nc3ccccc3C2CC[C@@]12[C@@H](c1ccc([N+](=O)[O-])cc1)C1CCCN1[C@@]21C(=O)Nc2ccccc21 (some centres not stated)	35 (≈ 67.2 µM)	55 (≈ 106 µM)	100 (≈ 192 µM)	75 (≈ 144 µM)	25 (≈ 48 µM)	40 (≈ 76.8 µM)
O=C1C2Nc3ccccc3C2CC[C@@]12[C@@H](c1ccc(Br)cc1)C1CCCN1[C@@]21C(=O)Nc2ccccc21 (some centres not stated)	25 (≈ 45.1 µM)	30 (≈ 54.1 µM)	25 (≈ 45.1 µM)	50 (≈ 90.2 µM)	45 (≈ 81.2 µM)	30 (≈ 54.1 µM)
O=C1C2Nc3ccccc3C2CC[C@@]12[C@@H](c1ccc(Cl)cc1)C1CCCN1[C@@]21C(=O)Nc2ccccc21 (some centres not stated)	10 (≈ 19.6 µM)	35 (≈ 68.6 µM)	75 (≈ 147 µM)	125 (≈ 245 µM)	20 (≈ 39.2 µM)	30 (≈ 58.8 µM)
Cc1ccc([C@H]2C3CCCN3[C@@]3(C(=O)Nc4ccccc43)[C@]23CCC2c4ccccc4NC2C3=O)cc1 (some centres not stated)	40 (≈ 81.7 µM)	65 (≈ 133 µM)	50 (≈ 102 µM)	75 (≈ 153 µM)	45 (≈ 91.9 µM)	35 (≈ 71.5 µM)
O=C1C2Nc3ccccc3C2CC[C@@]12[C@@H](c1ccccc1)C1CCCN1[C@@]21C(=O)Nc2ccccc21 (some centres not stated)	30 (≈ 63.1 µM)	55 (≈ 116 µM)	50 (≈ 105 µM)	125 (≈ 263 µM)	–	20 (≈ 42.1 µM)
CN(C)c1ccc([C@H]2C3CCCN3[C@@]3(C(=O)Nc4ccccc43)[C@]23CCC2c4ccccc4NC2C3=O)cc1 (some centres not stated)	45 (≈ 86.8 µM)	50 (≈ 96.4 µM)	75 (≈ 145 µM)	150 (≈ 289 µM)	35 (≈ 67.5 µM)	35 (≈ 67.5 µM)
COC(=O)Nc1nc2ccccc2[nH]1 [CARBENDAZIM]	–	–	15 (≈ 78.5 µM)	18 (≈ 94.1 µM)	–	–
CN(C)[C@@H]1C(O)=C(C(N)=O)C(=O)[C@@]2(O)C(O)=C3C(=O)c4c(O)cccc4[C@@](C)(O)[C@H]3C[C@@H]12 [TETRACYCLINE]	15 (≈ 33.8 µM)	20 (≈ 45 µM)	–	–	10 (≈ 22.5 µM)	15 (≈ 33.8 µM)
